Key:
[1] = target: catalytic domain (JH1) of human JAK2 (Homo sapiens (Human), UniProt O60674); assay: JAK2 LanthaScreen JH1 Binding Assay; conditions: read-out: JH1 Bind IC50
Method in brief: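 FLAG-tagged biotinylated JH1 (aa 826-1132, baculovirus-expressed), 1.5 nM, with serially diluted compound, 50 nM fluorescent tracer and 0.5 nM streptavidin-Tb in pH 7.5 Tris buffer, 2 h at 25 °C; nonspecific binding with 2 mM ATP. TR-FRET read, IC50 by four-parameter fit.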

[2] = system: FLT3; assay: FLT3 Enzymatic Assay; format: biochemical
Protocol: (§1) The kinase assays were carried out at room temperature in assay buffer (HEPES 50 mM, pH 7.0, NaN3 0.02%, BSA 0.01%, Orthovanadate 0.1 mM, DTT 1 mM, MgCl2 10 mM) in a final volume of 10 μL. Testing compounds were prepared by serial dilution in DMSO and transferred to the plate wells by ECHO liquid handler (Labcyte) with 0.5% DMSO in the final assay. […]. Reactions were initiated by the addition of 5 μL ATP in assay buffer. The final 10 μL kinase reaction consists of 0.011 nM FLT3, 1 mM ATP, 500 nM TK Substrate-biotin and SEB reagent 62.5 nM in assay buffer. […] The plates were then sealed and centrifuged at 1800 rpm for 2 minutes. After 60 minutes incubation at room temperature, the product activity was determined by measuring the fluorescence at 620 nm and 665 nm on Pherastar microplate reader (BMG Labtech). A ratio is calculated (665/620 nm) for each well. Wells with DMSO only were served as the positive controls and wells containing no ATP were used as negative controls. IC50 determination was performed by fitting the curve of percent control activity versus the log of the compound concentration using the GraphPad Prism 7.0 software.

[3] = target: FLT3 (Homo sapiens (Human), UniProt P36888); assay: FLT3 Enzymatic Assay; format: biochemical; conditions: 1 mM ATP
Chain of FLT3 (Homo sapiens (Human), UniProt P36888) (P36888 27-993, species assumed): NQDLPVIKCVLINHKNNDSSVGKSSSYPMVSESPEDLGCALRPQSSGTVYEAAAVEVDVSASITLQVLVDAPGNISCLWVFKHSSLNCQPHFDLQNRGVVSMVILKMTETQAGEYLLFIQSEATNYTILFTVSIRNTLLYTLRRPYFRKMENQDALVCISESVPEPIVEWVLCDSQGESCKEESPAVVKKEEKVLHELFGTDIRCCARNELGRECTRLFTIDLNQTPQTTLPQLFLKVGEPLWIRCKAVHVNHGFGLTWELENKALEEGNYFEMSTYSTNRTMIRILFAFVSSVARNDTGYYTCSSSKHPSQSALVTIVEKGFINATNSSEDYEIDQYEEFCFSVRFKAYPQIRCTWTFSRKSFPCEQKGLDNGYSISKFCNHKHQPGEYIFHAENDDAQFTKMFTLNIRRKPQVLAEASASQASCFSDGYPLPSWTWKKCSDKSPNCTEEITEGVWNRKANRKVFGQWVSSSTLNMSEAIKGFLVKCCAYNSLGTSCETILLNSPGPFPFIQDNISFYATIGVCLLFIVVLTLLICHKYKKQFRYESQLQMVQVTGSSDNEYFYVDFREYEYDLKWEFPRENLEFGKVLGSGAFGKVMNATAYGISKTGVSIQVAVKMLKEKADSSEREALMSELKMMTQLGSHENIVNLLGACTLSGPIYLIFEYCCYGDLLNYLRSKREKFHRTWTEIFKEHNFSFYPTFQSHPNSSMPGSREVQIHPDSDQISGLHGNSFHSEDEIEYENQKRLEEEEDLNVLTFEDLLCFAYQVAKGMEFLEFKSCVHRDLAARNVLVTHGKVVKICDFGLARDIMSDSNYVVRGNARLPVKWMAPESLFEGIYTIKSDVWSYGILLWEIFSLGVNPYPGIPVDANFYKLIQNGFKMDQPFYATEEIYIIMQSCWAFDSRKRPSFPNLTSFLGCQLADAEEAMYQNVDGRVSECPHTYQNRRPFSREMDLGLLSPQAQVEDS
Protocol: as §1

[4] = system: pSTAT5 in SET-2 cells in whole blood; assay: pSTAT5 SET-2 Whole Blood MSD Assay; format: cell-based; conditions: Homo sapiens, 2 hour incubation, read-out: SET2 WB IC50
Protocol: SET-2 cells shipped from ABS, RPMI1640 medium, Fetal Bovine Serum from Gibco, Phospho-STAT5a,b Whole Cell Lysate Kit from Mesoscale, Retronectin (Recombinant Human Fibronectin Fragment) from TaKaRa, 96 well cell culture plate flat bottom from Corning, lysis buffer from Cell Signaling Technology, and sterile PBS from Gibco. Whole Blood from by BioIVT.
SET-2 cells were cultured in RPMI media with 20% FBS at 37° C. humidified incubator supplied with 5% CO2. On the day of the assay, 40 uL per well of diluted retronectin working solution was added to sterile 96-well clear flat bottom tissue culture plates (1:200 dilution of retronectin in sterile PBS) and incubated at 37 C for 1 hour. After 1 hour, the retronectin working solution was aspirated and SET-2 cells were seeded at 100,000/well in RPMI+20% FBS. Cells were incubated overnight at 37° C. and 5% CO2. The next day, the medium was removed and 40 μL of diluted compounds in serum-free RPMI and whole blood was added to the cells for a 2 hour incubation at 37° C. and 5% CO2. The compound starting concentration is 20 μM and 2.5 fold serial diluted down to 0.21 nM. The whole blood and compound mixture was then aspirated off using the BlueCat plate washer and washed 1× with PBS. Cells were lysed by adding 40 μL of 3× complete lysis buffer and shaken at room temperature for 45-60 minutes (complete lysis buffer consists of Cell Signaling Technology lysis buffer diluted to 3× and supplemented with Mesoscale's protease inhibitor, phosphatase I inhibitor, and phosphatase II inhibitor). The pSTAT5 MSD plates were blocked by adding 150 μL of Blocker A solution per well to the MSD plates and incubated at room temperature with shaking at 400 rpm for one hour or longer. After blocking, plates were washed 3× with 300 μL/well of 1× Tris Wash Buffer. After lysis, added 25 μL per well of lysed sample was added to MSD plate and incubated with shaking at 4° C. wrapped in foil overnight. The next day, plates were washed again and 25 μL/well of diluted 1× Detection Antibody Solution, wrapped in foil, and incubated at room temperature with shaking at 400 rpm for 1 hour. Plates were then washed again and lastly, 150 μL/well of 1× Read Buffer T was added to all wells. Plates were analyzed on MSD Discovery within 5 minutes. […] Data analysis was performed in GraphPad Prism using a 4-parameter fit and data was reported as Average±SD.

[5] = system: STAT5 (Tyr694) phosphorylation in SET-2 cells; assay: STAT5 (Tyr694) Phosphorylation Cell Based Assay; conditions: Homo sapiens, 2 hours, read-out: SET2 IC50
Method in brief: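 SET-2 cells in RPMI with 10% FBS were exposed to compound for 2 h at 37 °C (0.5% DMSO final). After lysis, phospho-STAT5 (Tyr694) was read by HTRF (665/620 ratio) after 24 h antibody incubation at room temperature. IC50 was fitted from percent control activity versus log concentration.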

Chain of catalytic domain (JH1) of human JAK2 (O60674 826-1132): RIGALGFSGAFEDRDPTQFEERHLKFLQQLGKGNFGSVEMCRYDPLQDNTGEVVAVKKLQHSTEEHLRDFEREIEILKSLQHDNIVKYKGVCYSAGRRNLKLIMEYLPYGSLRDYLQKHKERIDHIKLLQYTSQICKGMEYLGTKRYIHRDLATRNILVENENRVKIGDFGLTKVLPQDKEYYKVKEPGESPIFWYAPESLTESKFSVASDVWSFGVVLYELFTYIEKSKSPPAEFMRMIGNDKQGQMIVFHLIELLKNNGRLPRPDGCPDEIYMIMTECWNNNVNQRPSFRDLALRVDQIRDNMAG

Q: How did the IC50 [1] turn out when `[2H]C([2H])([2H])n1c(=O)n([C@@H]2CC[C@@H](NC(=O)OC)C2)c2c3c(-c4ccc5c(c4)COC5(C)C)c(-c4ccc(C(=O)N(C)C)cc4)[nH]c3ncc21` [Example 30, methyl ((1R,3R)-3-(8-(1,1-dimethyl-1,3-dihydroisobenzofuran-5-yl)-7-(4-(dimethylcarbamoyl)phenyl)-3-(methyl-d3)-2-oxo-3,6-dihydroimidazo[4,5-d]pyrrolo[2,3-b]pyridin-1(2H)-yl)cyclopentyl)carbamate] was run?
A: > 1000 nM

Q: What about the “Selectivity FLT3/JH2 V617F” value [2] of the same compound?
A: ***** (selectivity of >5000-fold to ≤12500-fold)

Q: What about the IC50 [3] of the same compound?
A: 250 to 1250 nM

Q: What about the IC50 [4] of the same compound?
A: ≤ 2.5 µM

Q: What about the IC50 [5] of the same compound?
A: ≤ 300 nM

Q: For `COCCN(C)C(=O)c1ccc(-c2[nH]c3ncc4c(c3c2-c2ccc3c(cnn3C(C)C)c2)n([C@@H]2CC[C@@H](NC(=O)OC)C2)c(=O)n4C)cc1F` [Example 15, Methyl ((1R,3R)-3-(7-(3-fluoro-4-((2-methoxyethyl)(methyl)carbamoyl)phenyl)-8-(1-isopropyl-1H-indazol-5-yl)-3-methyl-2-oxo-3,6-dihydroimidazo[4,5-d]pyrrolo[2,3-b]pyridin-1(2H)-yl)cyclopentyl)carbamate], which IC50 [1] is on record?
A: > 1000 nM

Q: And the “Selectivity FLT3/JH2 V617F” value [2]?
A: ****** (selectivity of >12500-fold)

Q: What about the IC50 [3] of the same compound?
A: 1250 to 2500 nM

Q: And the IC50 [4]?
A: 5 to 7.5 µM

Q: What about the IC50 [5] of the same compound?
A: ≤ 300 nM

Q: `[2H]C([2H])([2H])N(Cc1ccc(-c2[nH]c3ncc4c(c3c2-c2ccc3c(c2)COC3(C)C)n([C@@H]2CC[C@@H](NC(=O)OC)C2)c(=O)n4C([2H])([2H])[2H])cc1)C([2H])([2H])[2H]` [Example 29, Methyl ((1R,3R)-3-(7-(4-((bis(methyl-d3)amino)methyl)phenyl)-8-(1,1-dimethyl-1,3-dihydroisobenzofuran-5-yl)-3-(methyl-d3)-2-oxo-3,6-dihydroimidazo[4,5-d]pyrrolo[2,3-b]pyridin-1(2H)-yl)cyclopentyl)carbamate] was tested. Which IC50 [1] did it give?
A: > 1000 nM

Q: What about the “Selectivity FLT3/JH2 V617F” value [2] of the same compound?
A: **** (selectivity of >1750-fold to ≤5000-fold)

Q: And the IC50 [3]?
A: 250 to 1250 nM

Q: What about the IC50 [4] of the same compound?
A: ≤ 2.5 µM

Q: And the IC50 [5]?
A: ≤ 300 nM

Q: For `[2H]C([2H])([2H])n1c(=O)n([C@@H]2CC[C@@H](NC(=O)OC)C2)c2c3c(-c4ccc5c(cnn5C(C)C)c4)c(-c4ccc(CN(C)C)cc4)[nH]c3ncc21` [Example 26, Methyl ((1R,3R)-3-(7-(4-((dimethylamino)methyl)phenyl)-8-(1-isopropyl-1H-indazol-5-yl)-3-(methyl-d3)-2-oxo-3,6-dihydroimidazo[4,5-d]pyrrolo[2,3-b]pyridin-1(2H)-yl)cyclopentyl)carbamate], which IC50 [1] is on record?
A: > 1000 nM

Q: What about the “Selectivity FLT3/JH2 V617F” value [2] of the same compound?
A: **** (selectivity of >1750-fold to ≤5000-fold)

Q: What about the IC50 [3] of the same compound?
A: 250 to 1250 nM

Q: And the IC50 [4]?
A: ≤ 2.5 µM

Q: What about the IC50 [5] of the same compound?
A: ≤ 300 nM

Q: What does the source list for `[2H]C([2H])([2H])N(Cc1ccc(-c2[nH]c3ncc4c(c3c2-c2ccc3c(c2)CC(C)(C)O3)n([C@@H]2CC[C@@H](NC(=O)OC)C2)c(=O)n4C([2H])([2H])[2H])cc1)C([2H])([2H])[2H]` [Example 25, Methyl ((1R,3R)-3-(7-(4-((bis(methyl-d3)amino)methyl)phenyl)-8-(2,2-dimethyl-2,3-dihydrobenzofuran-5-yl)-3-(methyl-d3)-2-oxo-3,6-dihydroimidazo[4,5-d]pyrrolo[2,3-b]pyridin-1(2H)-yl)cyclopentyl)carbamate]?
A: IC50 [1]: > 1000 nM; Selectivity FLT3/JH2 V617F [2]: **** (selectivity of >1750-fold to ≤5000-fold); IC50 [3]: 250 to 1250 nM; IC50 [4]: ≤ 2.5 µM; IC50 [5]: ≤ 300 nM

Q: What does the source list for `COC(=O)N[C@@H]1CC[C@@H](n2c(=O)n(C)c3cnc4[nH]c(-c5ccc(C(=O)NC6CC6(F)F)c(F)c5)c(-c5ccc6c(cnn6C(C)C)c5)c4c32)C1` (stereo partly drawn) [Example 9, Methyl ((1R,3R)-3-(7-(4-((2,2-difluorocyclopropyl)carbamoyl)-3-fluorophenyl)-8-(1-isopropyl-1H-indazol-5-yl)-3-methyl-2-oxo-3,6-dihydroimidazo[4,5-d]pyrrolo[2,3-b]pyridin-1(2H)-yl)cyclopentyl)carbamate]?
A: IC50 [1]: > 1000 nM; Selectivity FLT3/JH2 V617F [2]: ****** (selectivity of >12500-fold); IC50 [3]: > 2500 nM; IC50 [4]: 5 to 7.5 µM; IC50 [5]: 300 to 800 nM

Q: `CCNC(=O)c1ccc(-c2[nH]c3ncc4c(c3c2-c2ccc3c(cnn3C(C)C)c2)n([C@@H]2CC[C@@H](NC(=O)OC)C2)c(=O)n4C)cc1F` [Example 6, Methyl ((1R,3R)-3-(7-(4-(ethylcarbamoyl)-3-fluorophenyl)-8-(1-isopropyl-1H-indazol-5-yl)-3-methyl-2-oxo-3,6-dihydroimidazo[4,5-d]pyrrolo[2,3-b]pyridin-1(2H)-yl)cyclopentyl)carbamate] was tested. Which IC50 [1] did it give?
A: > 1000 nM

Q: What about the “Selectivity FLT3/JH2 V617F” value [2] of the same compound?
A: ***** (selectivity of >5000-fold to ≤12500-fold)

Q: And the IC50 [3]?
A: 1250 to 2500 nM

Q: And the IC50 [4]?
A: 2.5 to 5 µM

Q: And the IC50 [5]?
A: ≤ 300 nM

Q: What does the source list for `COC(=O)N[C@@H]1CC[C@@H](n2c(=O)n(C)c3cnc4[nH]c(-c5ccc(C(=O)NC6(C(F)(F)F)CC6)c(F)c5)c(-c5ccc6c(cnn6C(C)C)c5)c4c32)C1` [Example 13, Methyl ((1R,3R)-3-(7-(3-fluoro-4-((1-(trifluoromethyl)cyclopropyl)carbamoyl)phenyl)-8-(1-isopropyl-1H-indazol-5-yl)-3-methyl-2-oxo-3,6-dihydroimidazo[4,5-d]pyrrolo[2,3-b]pyridin-1(2H)-yl)cyclopentyl)carbamate]?
A: IC50 [1]: > 1000 nM; Selectivity FLT3/JH2 V617F [2]: ****** (selectivity of >12500-fold); IC50 [3]: > 2500 nM; IC50 [4]: 5 to 7.5 µM; IC50 [5]: 300 to 800 nM

Q: How did the IC50 [1] turn out when `COC(=O)N[C@@H]1CC[C@@H](n2c(=O)n(C)c3cnc4[nH]c(-c5ccc(CN(C)C)cc5)c(-c5ccc(F)cc5)c4c32)C1` [Example 28, Methyl ((1R,3R)-3-(7-(4-((dimethylamino)methyl)phenyl)-8-(4-fluorophenyl)-3-methyl-2-oxo-3,6-dihydroimidazo[4,5-d]pyrrolo[2,3-b]pyridin-1(2H)-yl)cyclopentyl)carbamate] was run?
A: > 1000 nM

Q: What about the “Selectivity FLT3/JH2 V617F” value [2] of the same compound?
A: ** (selectivity of >500-fold to ≤1500-fold)

Q: And the IC50 [3]?
A: 250 to 1250 nM

Q: What about the IC50 [4] of the same compound?
A: ≤ 2.5 µM

Q: And the IC50 [5]?
A: 300 to 800 nM

Q: Which IC50 [1] does the source give for `COc1nn(C)cc1-c1[nH]c2ncc3c(c2c1-c1ccc2c(cnn2C)c1)n(C1CCOCC1)c(=O)n3C` [Comparative Example A, reference compound] here?
A: > 1000 nM

Q: And the “Selectivity FLT3/JH2 V617F” value [2]?
A: * (selectivity of ≤500-fold)

Q: And the IC50 [4]?
A: 5 to 7.5 µM

Q: Which results are given for `[2H]C([2H])([2H])n1ncc2cc(-c3c(-c4cn(C)nc4OC)[nH]c4ncc5c(c34)n(C3CCOCC3)c(=O)n5C)ccc21` [Comparative Example B, reference compound]?
A: IC50 [1]: > 1000 nM; Selectivity FLT3/JH2 V617F [2]: * (selectivity of ≤500-fold); IC50 [4]: 5 to 7.5 µM

Q: With `COc1nn(C)cc1-c1[nH]c2ncc3c(c2c1-c1ccc2c(cnn2C)c1)n([C@H]1CC[C@@H](CC#N)CC1)c(=O)n3C` [E, reference compound] as the compound, how does the IC50 [1] read?
A: > 1000 nM

Q: And the “Selectivity FLT3/JH2 V617F” value [2]?
A: * (selectivity of ≤500-fold)

Q: And the IC50 [4]?
A: > 7.5 µM
